According to paper PMC12652113, “Fluorescent Albumin-Binding N-Propylbenzene Indolenine-Based Squaraines as Potential Candidates for Prostate Cancer Photodynamic Therapy Photosensitizers” (International Journal of Molecular Sciences, 2025):

Legend:
[1] = Absorption and fluorescence photophysical characterization in organic solvents; assay type: physicochemical
Procedure: UV–Vis spectra were recorded on a Perkin-Elmer Lambda 25 spectrophotometer (Perkin-Elmer, Waltham, MA, USA) using Hellma Analytics quartz cuvettes (1 cm path length; Hellma Analytics, Müllheim, Germany). Spectral data are reported as maximum absorption wavelength (λmax, nm) and molar absorptivity (ε, M^−1·cm^−1). The latter was calculated according to the Lambert–Beer law from calibration plots of absorbance at λmax versus known dye concentrations.
Ultraviolet–visible absorption spectra were obtained at room temperature using a PerkinElmer Lambda 25 spectrophotometer, while fluorescence emission data were collected on a Horiba Jobin Yvon FluoroMax-4 fluorometer. Singlet oxygen and photostability tests and measurements were carried out on a BioRad xMark microplate reader (Bio-Rad, Hercules, CA, USA).
[…] All stock solutions were prepared at 0.67 mM concentration and stored in the dark at 4 °C until further use. For spectroscopic characterization, 1.0 µM stock solutions of the squaraine dyes in dimethyl sulfoxide were serially diluted into a series of solvents (chloroform, dimethyl sulfoxide, methanol, and phosphate buffer) to obtain at least five defined concentrations. The absorption spectra of these dilutions were recorded and used to calculate molar extinction coefficients according to the Beer–Lambert law. Additional working solutions at a 1.0 µM concentration were prepared in dimethyl sulfoxide and buffer, and 1.0% Triton X-100 was added where required to investigate dye aggregation.
The emission areas were integrated, and relative quantum yields were calculated following established methodologies, considering both absorbance at the excitation wavelength and the refractive index of the solvent. The calculation was performed using Equation (2), where “dye” and “ref” denote the squaraine dyes and the reference compound, respectively; I corresponds to the integrated emission intensity, A to the absorbance value at the excitation wavelength, and η to the refractive index of the solvent:(2) ΦF(dye)= ΦF(Std)Idye/Iref Aref/Adye ηdye2/ηref2

[2] = Photophysical properties in phosphate buffer in the absence of HSA; assay type: physicochemical; details: phosphate buffer (pH 7.4)
Procedure: Squaraine dyes were dissolved in dimethyl sulfoxide, whereas zinc phthalocyanine required dimethylformamide as a solvent. All stock solutions were prepared at 0.67 mM concentration and stored in the dark at 4 °C until further use. For spectroscopic characterization, 1.0 µM stock solutions of the squaraine dyes in dimethyl sulfoxide were serially diluted into a series of solvents (chloroform, dimethyl sulfoxide, methanol, and phosphate buffer) to obtain at least five defined concentrations. The absorption spectra of these dilutions were recorded and used to calculate molar extinction coefficients according to the Beer–Lambert law. Additional working solutions at a 1.0 µM concentration were prepared in dimethyl sulfoxide and buffer, and 1.0% Triton X-100 was added where required to investigate dye aggregation.
For fluorometric experiments, the squaraine stock solutions were initially prepared in dimethylformamide and subsequently diluted with phosphate buffer for the protein–dye interaction analysis. Human serum albumin stock solution was then added to these mixtures, while keeping the dye concentration fixed at 2.0 µM and varying the protein concentration from 0 to 3.0 µM (0.0 to 3.0 µM for squaraines 5, 9, and 11, and from 0 to 6.0 µM for squaraine 13). Fluorescence intensities of the resulting solutions were recorded after 0, 3, and 24 h of incubation with the protein. The excitation wavelengths and excitation/emission slit widths used for the measurements were optimized for each dye, as listed in Table 6.

[3] = system: prostate adenocarcinoma (PC-3) cell line; assay: MTT dark and light-induced cytotoxicity in PC-3; assay type: cell-based, human; details: for IC50: Homo sapiens, 24 h incubation; for tumor selectivity ratio (TSR): IC50 NHDF irradiated/IC50 PC-3 irradiated; for Photodynamic ratio (PTR): PC-3, IC50 dark/IC50 irradiated
Procedure: For potential applicability as photosensitizers in PDT, these candidates are expected to display cytotoxic effects only after photoactivation, namely, and preferably restricted to target tissue cells, without inducing damage to healthy counterparts. To evaluate this, prostate adenocarcinoma PC-3 cells and non-tumoral NHDF fibroblasts were incubated with increasing concentrations of the squaraine dyes for 24 h. Subsequently, the cells were irradiated using an LED system centered at 663 nm, a wavelength close to the absorption maximum of the monomeric dye forms. Twenty-four hours post-irradiation, cellular metabolic activity was assessed by the MTT assay.
The in cell photocytotoxicity of the squaraine dyes was assessed using the MTT assay. When cells reached 90–95% confluence, they were trypsinized using a trypsin-EDTA solution (0.125 g/L trypsin, 0.02 g/L EDTA), counted via trypan-blue exclusion in a Neubauer chamber, and diluted to 2 × 10^4 cells/mL. A 100 µL aliquot of this suspension was seeded into each well of 96-well plates and incubated for 48 h to allow for cell attachment and resumption of proliferation.
After this period, the medium was removed, and cells were treated with various concentrations of the squaraine dyes (0.01, 0.1, 1, 2.5, 5, and 10 µM) in the appropriate culture medium. […] Negative controls consisted of cells exposed only to culture medium. All experiments were performed in quadruplicate and independently repeated.
After 24 h of exposure to the dyes, the cells were subjected to two different irradiation conditions: the first group was not irradiated and was protected from ambient light for 21 min, and the second group was irradiated for 7 min.
Twenty-four hours post-irradiation, the culture medium was removed, cells were washed with 100 µL PBS, and 100 µL of MTT solution (5 mg/mL in serum- and antibiotic-free medium) was added per well. Cells were incubated for 4 h at 37 °C, after which the supernatant was discarded, and the formazan crystals were solubilized in dimethyl sulfoxide. Absorbance was measured at 570 nm using a Bio-Rad xMark microplate reader.
Cell viability was expressed as the percentage of absorbance in treated samples relative to the untreated negative control. Data were statistically analyzed by ordinary two-way ANOVA followed by the Šidák multiple comparisons test, comparing irradiated and non-irradiated conditions at the same concentration, with differences considered statistically significant at a p-value < 0.05. Half-maximal inhibitory concentration values reported in this work were obtained by fitting the data to a sigmoidal model with a 95% confidence interval. All assays were performed in quadruplicate and replicated independently at least twice. Phototoxicity and tumor selectivity ratios were quantified according to Equations (6) and (7):(6) PTR = IC50 dark condition/IC50 irradiated condition (7) TSR = IC50 for NHDF cells under irradiated condition/IC50 for cancer cell line under irradiated condition
Irradiation was performed using a light-emitting diode array centered at 663 ± 8 nm to match the absorption maximum of the dyes. The LED (Roithner; 8.3 mW radiant flux) was integrated into flat-bottom 96-well plates and powered by a regulated current source. The irradiance was 15.8 mW/cm^2, and the total energy delivered per well was 3.49 J after 7 min, ensuring precise light dosing for all experiments.

[4] = DMSO, relative to zinc phthalocyanine
[5] = light or radiation study, PC-3, Light, 7 min LED 663 nm, MTT 24 h post-irradiation

Row | SMILES | Stokes shift (ΔS) ([1]; DMSO) [nm] | absorption maximum (λabs) ([1]; DMSO) [nm] | emission maximum (λem) ([1]; DMSO) [nm] | molar absorption coefficient (ε) ([1]; DMSO) [M⁻¹ cm⁻¹] | fluorescence quantum yield (ΦF) [1, 4] | Stokes shift (ΔS) ([1]; chloroform (CFM)) [nm] | absorption maximum (λabs) ([1]; chloroform (CFM)) [nm] | emission maximum (λem) ([1]; chloroform (CFM)) [nm] | fluorescence quantum yield (ΦF) ([1]; chloroform (CFM)) | molar absorption coefficient (ε) ([1]; chloroform (CFM)) [M⁻¹ cm⁻¹] | Stokes shift (ΔS) ([1]; methanol (MeOH)) [nm] | absorption maximum (λabs) ([1]; methanol (MeOH)) [nm] | emission maximum (λem) ([1]; methanol (MeOH)) [nm] | fluorescence quantum yield (ΦF) ([1]; methanol (MeOH)) | molar absorption coefficient (ε) ([1]; methanol (MeOH)) [M⁻¹ cm⁻¹] | absorption maximum (λabs) [2] [nm] | fluorescence quantum yield (ΦF) [2] | molar absorption coefficient (ε) [2] [M⁻¹ cm⁻¹] | IC50 [3, 5] [nM] | IC50 ([3]; PC-3, Dark, MTT 24 h later) [nM] | also measured
1 | CNC1=C(C=C2N(CCCc3ccccc3)c3ccccc3C2(C)C)C(=O)C1=CC1=[N+](CCCc2ccccc2)c2ccccc2C1(C)C.[I-] [Dye 11, 2-{3-[3,3-Dimethyl-1-(3-phenylpropyl)indolin-2-ylidenemethyl]-2-(methylamino)-4-oxocyclobut-2-en-1-ylidenemethyl}-3,3-dimethyl-1-(3-phenylpropyl)-indol-1-ium Iodide] | 12 | 663 | 675 | 212000 | 0.04 | 13 | 657 | 670 | 0.10 | 202000 | 11 | 650 | 661 | 0.01 | 174000 | 655 | 0.01 | 71000 | 90 | 1440 | tumor selectivity ratio (TSR) [3]: 36.0; Photodynamic ratio (PTR) [3]: 16
2 | CC1(C)C(=CC2=C(NCc3ccc4ccc5cccc6ccc3c4c56)C(=CC3=[N+](CCCc4ccccc4)c4ccccc4C3(C)C)C2=O)N(CCCc2ccccc2)c2ccccc21.[I-] [Dye 14, 2-({3-[3,3-dimethyl-1-(3-phenylpropyl)indolin-2-ylidenemethyl]-4-oxo-2-[(pyren-1-ylmethyl)amino]cyclobut-2-en-1-ylidene}methyl)-3,3-dimethyl-1-(3-phenylpropyl)-indol-1-ium Iodide] | 15 | 661 | 676 | 197000 | 0.05 | 13 | 658 | 671 | 0.06 | 281000 | 13 | 650 | 663 | 0.01 | 285000 | 672 | 0.00 | 67000 | > 10000 | > 10000 | 
3 | CC1(C)C(=CC2=C([O-])C(=CC3=[N+](CCCc4ccccc4)c4ccccc4C3(C)C)C2=O)N(CCCc2ccccc2)c2ccccc21 [Dye 5, 4-[3,3-Dimethyl-1-(3-phenylpropyl)-indol-1-ium-2-ylmethylene]-2-[3,3-dimethyl-1-(3-phenylpropyl)indolin-2-ylidenemethyl]-3-oxocyclobut-1-en-1-olate] | 13 | 646 | 659 | 293000 | 1.00 | 1 | 638 | 639 | 0.46 | 428000 | 13 | 631 | 644 | 0.16 | 422000 | 605 | 0.02 | 89000 | 898 | > 10000 | Stokes shift (ΔS) [2]: 91 nm; emission maximum (λem) [2]: 696 nm; reduction in viability ([3]; PC-3 cells, irradiated, 1.0 μM): approximately 60%
4 | CC1(C)C(=CC2=C(N)C(=CC3=[N+](CCCc4ccccc4)c4ccccc4C3(C)C)C2=O)N(CCCc2ccccc2)c2ccccc21.[I-] [Dye 9, 2-{2-Amino-3-[3,3-dimethyl-1-(3-phenylpropyl)indolin-2-ylidenemethyl]-4-oxocyclobut-2-en-1-ylidenemethyl}-3,3-dimethyl-1-(3-phenylpropyl)-indol-1-ium Iodide] | 12 | 652 | 664 | 232000 | 0.12 | 9 | 647 | 656 | 0.08 | 330000 | 12 | 640 | 652 | 0.02 | 303000 | 605 | 0.00 | 58000 | 93 | 1210 | Stokes shift (ΔS) [2]: 37 nm; emission maximum (λem) [2]: 642 nm; tumor selectivity ratio (TSR) [3]: 40.8; Photodynamic ratio (PTR) [3]: 13
